{"source": "paper PMC8284461", "about": "“Piperidine-4-Carboxamides Target DNA Gyrase in Mycobacterium abscessus” (Antimicrobial Agents and Chemotherapy, 2021)", "key": {"[1]": {"assay": "Mouse liver microsome stability", "format": "in vitro ADME", "method": "(§1) Kinetic solubility, parallel artificial membrane permeability assay (PAMPA) permeability, and stability in the mouse liver microsome assay were performed by BioDuro (Shanghai, China) according to standard protocols."}, "[2]": {"system": "M. abscessus complex strains", "assay": "MIC across reference strains and clinical isolates", "format": "cell-based, Mycobacterium abscessus", "method": "MIC was determined using the broth microdilution method in 96-well plates as described previously ([47]). Briefly, a 10-point 2-fold serial dilution of compounds was performed in 96-well plates (Costar 3370; Corning, USA) starting at twice the desired highest concentration. […] One hundred microliters of the bacterial suspension was seeded onto the 96-well plates containing 100 μl of the serially diluted compounds to give a final volume of 200 μl in each well with the final OD600 of 0.005. The plates were sealed with parafilm, placed onto wet paper towels in a lock-lock box and incubated for 3 days at 37°C with orbital shaking at 90 rpm. […] Absorbance values at day 3 were subtracted from the day 0 readout. Percent growth inhibition was calculated by dividing the absolute absorbance value of treated cells with untreated control and multiplying by 100. CLR was included in all MIC experiments as a positive control to monitor assay reproducibility. MIC was defined as 90% of growth inhibition relative to untreated controls."}, "[3]": {"system": "M. abscessus subsp. abscessus ATCC 19977 MXF^r-1 (GyrA D96Y)", "assay": "MIC, resistant mutant", "format": "cell-based, Mycobacterium abscessus", "conditions": "Mycobacteroides abscessus, ATCC19977"}, "[4]": {"system": "M. abscessus subsp. abscessus ATCC 19977 MXF^r-3 (GyrA D96G)", "assay": "MIC, resistant mutant", "format": "cell-based, Mycobacterium abscessus", "conditions": "Mycobacteroides abscessus, ATCC19977"}, "Plasma stability [5]": {"assay": "Plasma stability", "format": "in vitro ADME, New Zealand white rabbits", "conditions": "rabbit plasma, 37°C, 1 μg/ml", "method": "(§2) The plasma stability assays were carried out using plasma from female CD-1 mice, New Zealand white rabbits, rhesus monkeys, and humans containing K2EDTA anticoagulant (Bioreclamation). Stability samples consisted of 5 μl of stock compound solution in 50:50 ACN/water and 95 μl of plasma to a final concentration of 1 μg/ml. The samples were incubated at 37°C with shaking; 10 μl of plasma was removed at each time point and combined with 100 μl of ACN/methanol 50:50 protein precipitation solvent containing internal standard (10 ng/ml verapamil). Chromatography for metabolite identification was performed the same as specified for pharmacokinetic sample analysis. Full scan total ion chromatograms (TIC) of plasma extracts were acquired using a Q Exactive high-resolution mass spectrometer (QE-HRMS) at 70,000 mass resolution. Thermo Fisher Compound Discoverer software was used to assist in identifying the 844-TFM metabolites from the QE-HRMS TIC mass spectrum. Figure S2 in the supplemental material illustrates the extracted ion chromatograms (XIC) of 844-TFM and the metabolites using 5 ppm mass accuracy before and after 12 h of incubation in mouse plasma."}, "[6]": {"assay": "Parallel artificial membrane permeability assay (PAMPA)", "format": "in vitro ADME", "method": "as §1"}, "[7]": {"system": "M. abscessus subsp. abscessus ATCC 19977", "assay": "Selection and characterization of spontaneous resistant mutants", "format": "cell-based, Mycobacterium abscessus", "conditions": "ATCC 19977, agar with 8× MIC"}, "[8]": {"assay": "In vivo mouse pharmacokinetics", "conditions": "CD-1 mice", "method": "All animal experiments were approved by the Center for Discovery and Innovation, Institutional Animal Care and Use Committee, and were conducted in compliance with their guidelines. Female CD-1 mice were weighed and received a single dose of […] via the intravenous (i.v.) (5 mg/kg of body weight), oral (p.o.) (25 mg/kg), or subcutaneous (s.c.) (25 mg/kg) dosing route. The compound was formulated as a solution in 5% N,N-dimethylacetamide (DMA)/95% Milli-Q water vehicle. Blood samples were serially collected via the tail snip from each individual mouse at 0.017, 0.25, 1, 3, 5, and 8 h postdose following i.v. dosing and at 0.5, 1, 3, and 5 h postdose following p.o. and s.c. dosing. Blood (50 μl) was collected in capillary Microvette K2EDTA tubes (16.444.100; Sarstedt, Inc.) and kept on ice prior to centrifugation at 1,500 × g for 5 min. The supernatant (plasma) was transferred into a 96-well plate and stored at −80°C.\nLiquid chromatography-tandem mass spectrometry (LC-MS/MS) analysis was performed on a Sciex Applied Biosystems Qtrap 6500+ triple-quadrupole mass spectrometer coupled to a Shimadzu Nexera 2 high-pressure liquid chromatography (HPLC) system to quantify each drug in plasma. Neat 1 mg/ml DMSO stocks for 844-TFM were serial diluted in 50:50 acetonitrile (ACN)/water to create standard curves and quality control (QC) spiking solutions. Standards and QCs were created by adding 10 μl of spiking solutions to 90 μl of drug-free plasma (CD-1 K2EDTA Mouse; Bioreclamation IVT). Twenty microliters of control, standard, QC, or study sample were added to 200 μl of ACN/methanol (MeOH) 50:50 protein precipitation solvent containing internal standard (10 ng/ml verapamil). Extracts were vortexed for 5 min and centrifuged at 4,000 rpm for 5 min. One hundred microliters of supernatant was transferred for HPLC-MS/MS analysis and diluted with 100 μl of Milli-Q deionized water.\nChromatography was performed on an Agilent Zorbax SB-C8 column (2.1 × 30 mm; particle size, 3.5 μm) using a reverse-phase gradient. Milli-Q deionized water with 0.1% formic acid was used for the aqueous mobile phase and 0.1% formic acid in ACN for the organic mobile phase. Multiple-reaction monitoring of precursor/product transitions in electrospray positive-ionization mode was used to quantify the analytes. The following multiple reaction monitoring (MRM) transitions were used for 844-TFM (459.10/133.00) and verapamil (455.4/165.2). Sample analysis was accepted if the concentrations of the quality control samples were within 20% of the nominal concentration. Data processing was performed using Analyst software (version 1.6.2; Applied Biosystems Sciex)."}, "[9]": {"system": "M. abscessus subsp. abscessus ATCC 19977 844-TMF^r-4 (GyrB M474I)", "assay": "MIC, resistant mutant", "format": "cell-based, Mycobacterium abscessus", "conditions": "Mycobacteroides abscessus, ATCC19977"}, "Plasma stability [10]": {"assay": "Plasma stability", "format": "in vitro ADME, CD-1 mice", "conditions": "mouse plasma, 37°C, 1 μg/ml", "method": "as §2"}, "[11]": {"conditions": "female, mouse, plasma, iv, i.v. 5 mg/kg, average (SD)"}}, "note": "Read-outs that look alike come from different tables or passages of the source.", "data": [{"smiles": "COc1ccc2nccc(NC(=O)C3CCN(CCc4ccc(C(F)(F)F)cc4)CC3)c2n1", "note": "[844-TFM]", "values": [{"measurement": "CLint scaled", "setting": "[1]; liver microsomes, mouse hepatic microsomes, scaled", "value": 1050, "unit": "mL/min/kg"}, {"measurement": "microsomal CLint", "setting": "[1]; liver microsomes, mouse hepatic microsomes, read-out: In vitro CLint", "value": 267, "unit": "µL/min/mg"}, {"measurement": "t1/2", "setting": "[1]; mouse hepatic microsomes, in vitro", "value": 5.2, "unit": "min"}, {"measurement": "CLhepatic", "setting": "[1]; mouse hepatic microsomes, scaled", "value": 82.9, "unit": "mL/min/kg"}, {"measurement": "half-life", "setting": "[1]; mouse, liver microsomes, mouse hepatic microsomes, in vitro", "value": 5, "unit": "min"}, {"measurement": "predicted extraction ratio", "setting": "[1]; mouse, clearance vs hepatic blood flow of 90 ml/min/kg", "value": "~1"}, {"measurement": "MIC", "setting": "[2]; Mycobacteroides abscessus, reference strains and clinical isolates of Table 1, read-out: MICs ranging across the M. abscessus complex strains", "value": "1.5 to 6", "unit": "µM"}, {"measurement": "fold more potent than 844", "setting": "[2]; whole-cell potency relative to 844", "value": "~8", "unit": "fold"}, {"measurement": "MIC", "setting": "[3]", "value": 6, "unit": "µM"}, {"measurement": "MIC", "setting": "[4]", "value": 1, "unit": "µM"}, {"measurement": "remaining after 24 h", "setting": "Plasma stability [5]", "value": "approximately 80%"}, {"measurement": "Papp", "setting": "[6]; PAMPA, pH 7.4, read-out: PAMPA Mean Pe", "value": 2, "unit": "×10⁻⁶ cm/s"}, {"measurement": "PAMPA logPe", "setting": "[6]; pH 7.4", "value": "−5.7"}, {"measurement": "PAMPA logPe", "setting": "[6]; −5.0 cm/s considered border between high and low permeability", "value": "−5.7", "unit": "cm/s"}, {"measurement": "frequency of spontaneous resistance", "setting": "[7]", "value": "10^−8 /CFU"}, {"measurement": "V", "setting": "[8]; i.v. 5 mg/kg, average (SD)", "value": "0.811 (0.221) liter/kg"}, {"measurement": "clearance", "setting": "[8]; [11]", "value": 10.6, "unit": "mL/min/kg"}, {"measurement": "k el", "setting": "[8]; [11]", "value": 0.000192, "unit": "s⁻¹"}, {"measurement": "AUC", "setting": "[8]; female, mouse, plasma, iv, i.v. 5 mg/kg, average (SD), read-out: AUC i.v.", "value": 5630, "unit": "ng·h/mL"}, {"measurement": "half-life", "setting": "[8]; female, mouse, plasma, iv, i.v. 5 mg/kg, average (SD), read-out: elimination half-life (converted)", "value": 61.8, "unit": "min"}, {"measurement": "bioavailability", "setting": "[8]; female, mouse, plasma, oral, p.o. 25 mg/kg vs i.v. 5 mg/kg, read-out: p.o. bioavailability", "value": "0.05 to 0.2", "unit": "%"}, {"measurement": "bioavailability", "setting": "[8]; female, mouse, plasma, po, p.o. 25 mg/kg vs i.v. 5 mg/kg, read-out: p.o. bioavailability", "value": 0.15, "unit": "%"}, {"measurement": "AUC", "setting": "[8]; female, mouse, plasma, po, p.o. 25 mg/kg, average (SD), read-out: AUC p.o.", "value": 58, "unit": "ng·h/mL"}, {"measurement": "bioavailability", "setting": "[8]; female, mouse, plasma, sc, s.c. 25 mg/kg vs i.v. 5 mg/kg, read-out: s.c. bioavailability", "value": 3, "unit": "%"}, {"measurement": "AUC", "setting": "[8]; female, mouse, plasma, sc, s.c. 25 mg/kg, average (SD), read-out: AUC s.c.", "value": 1170, "unit": "ng·h/mL"}, {"measurement": "MIC", "setting": "[9]", "value": 6, "unit": "µM"}, {"measurement": "stability in plasma", "setting": "Plasma stability [10]", "value": "rapidly degraded"}]}]}
